{
  "source": "patent US8937096B2",
  "about": "“Use of benzo-fused heterocyle sulfamide derivatives for the treatment of mania and bipolar disorder” (priority 2005, dated 2015)",
  "key": {"CH3/HeJ mice": {"tested_on": "CH3/HeJ mice", "test": "Tail Suspension Test (Acute)", "assay_type": "in vivo, mouse", "conditions": "for ED50: Mus musculus, po, 7 min; for Immobility Emax % of C / Mobility Emax % of C: 7-min session", "description": "In the tail suspension test (TST) for evaluating compounds for anti-depressant activity, mice are suspended by their tails to a metal or plastic rod using clip or scotch tape. The test is usually quite short, 5-7 min, and the amount of time the mice spend immobile is recorded either manually or with an automated device. Agents which have antidepressant activity, decrease the duration of immobility of mice in this test.\nThe basic apparatus for the tail suspension assay consisted of a yellow plastic chamber (91×45×10 cm) divided for four arenas 25, 20, 20 and 25 cm wide separated by yellow plastic walls 0.75 cm thick. Mice were suspended by their tails using a rubber clip (7 cm long) attached to the plastic rod that was placed on the top of a testing chamber half way through its deep dimension. Each experimental session was videotaped and analyzed for four animals in the real time by computer software (“Depression Scan” Clever Sys Inc.). The computer justification of immobility was calibrated with the use of animals dosed with lorazepam while justification of movement was calibrated with the high dose of desipramine treated animals. […] The settings were adjusted separately for dark (CH3/HeJ and C57BI/6J strains) and white mice (Balb/cJ and A/J strains). A yellow background was used for dark mice and a blue background was used to record movements of white mice.\nThe ability of a test compound to decrease the duration of immobility, or increase mobility was measured using the TST procedure described above.\nData were analyzed using GraphPad Prism software (GraphPad Software, Inc. San Diego, Calif.). For the comparison of the effect of different doses for various drugs on immobility in the TST one-way analyses of variance (ANOVA) were used followed by Dunnett's multiple comparison test. […] The ED50 and Emax values were compared using two-way ANOVA and Bonferroni post-hoc test.\nPositive controls included duloxetine (DLX), venlafaxine (VLX) and desipramine (DMI) which were dissolved in 0.5% methylcellulose and lorazepam (LOR) which was suspended in 0.5% of methylcellulose in water by sonication. All drugs and vehicles were administered orally (p.o.) by gavage in a volume of 10 mL/kg.\nThe mice were ordered 5 weeks old and at the beginning of experiment their weight was 20±5 g. Animals were housed in groups of four in plastic cages at an ambient temperature of 21° C. to 23° C. with an automated 12/12 hours light/dark cycle and access to water and a commercial rodent food ad libitum.\nEach experiment consisted of seven treatment groups with four animals per group. A total of 28 animals per experiment were used. Every two consecutive experiments (1 & 2, 3 & 4, 5 & 6 and 7 & 8) were exact replicas of each other. […] One treatment group of four animals in each experiment was a vehicle treated group. In addition to the vehicle treated group, the effects of DMI at 6 mg/kg, 12 mg/kg, 30 mg/kg, 60 mg/kg and 120 mg/kg and LOR at 5 mg/kg were tested in experiments 1 and 2. […] In experiments 5 and 6 the effects of DLX at 6 mg/kg, 12 mg/kg, 30 mg/kg, 60 mg/kg, 120 mg/kg and LOR at 5 mg/kg were tested."}, "Wistar rats": {"tested_on": "Wistar rats", "test": "Chronic Mild Stress Model (Chronic)", "assay_type": "in vivo, rat", "description": "In the chronic mild stress (CMS) model rats subjected to a variety of mild stressors for a prolonged period of time show, among other behavioral, biochemical and physiological impairments, a substantial decrease in their responsiveness to rewarding stimuli. This deficit is usually monitored by a decrease in the consumption of the 1% sucrose solution, but can also be seen in other tests, such as place preference conditioning or intracranial self-stimulation. Since the subsensitivity to reward appears to reflect anhedonia (inability to experience pleasure), which is a core symptom of major depressive disorders, the CMS procedure may serve as a suitable research tool in studies into the mechanisms of antidepressant action.\nMale Wistar rats were brought into the laboratory two months before the start of the experiment. Except as described below, the animals were singly housed with food and water freely available, and were maintained on a 12-h light/dark and in a constant temperature (22±2° C.) and humidity (50±5%) conditions.\nThe animals were first trained to consume a 1% sucrose solution; training consisted of eight 1 h baseline tests in which sucrose was presented, in the home cage, following 14 h food and water deprivation; the sucrose intake was measured by weighing pre-weighed bottles containing the sucrose solution, at the end of the test. Subsequently, sucrose consumption was monitored, under similar conditions, at weekly intervals throughout the whole experiment.\nOn the basis of their sucrose intakes in the final baseline test, the animals were divided into two matched groups. One group of animals was subjected to the chronic mild stress procedure for a period of 7 consecutive weeks. […]\nAll results obtained in this study were analyzed by multiple analyses of variance with three between-subjects factors (stress/control, drug treatments and successive sucrose tests). […]"}, "[1]": {"tested_on": "amygdala kindled seizures", "test": "Amygdala Kindling Assay (Kindling Prevention)", "assay_type": "in vivo, rat"}, "[2]": {"tested_on": "LTG-resistant amygdala kindled seizures", "test": "Lamotrigine Resistant Amygdala Kindled Rat Model (Interruption of Kindled State)", "assay_type": "in vivo", "conditions": "75 mg/kg i.p.", "description": "Amygdala kindling is less severe than hippocampal kindling, such that many AEDs are effective against amygdala kindled seizures, but are ineffective against hippocampal kindled seizures. […] Fifteen minutes after the last stimulation, a single dose of vehicle or test compound was administered i.p. After 15 min, each rat was then stimulated every 30 min for 3 to 4 h. After each stimulation, individual seizure scores and after-discharge durations were recorded. The group mean±SEM was calculated for each parameter."}},
  "note": "Read-outs that look alike come from different tables or passages of the source.",
  "data": [
    {"smiles": "COc1ccc(C(CN(C)C)C2(O)CCCCC2)cc1", "note": "(stereo not shown) [Venlafaxine, venlafaxine, reference compound]", "values": [
      {"measurement": "ED50", "setting": "CH3/HeJ mice; read-out: Immobility ED50", "result": 25, "unit": "mg/kg"},
      {"measurement": "ED50", "setting": "CH3/HeJ mice; read-out: Mobility ED50", "result": 21.1, "unit": "mg/kg"},
      {"measurement": "Immobility Emax % of C", "setting": "CH3/HeJ mice; p.o., CH3/HeJ mice", "result": "63.7 % of C"},
      {"measurement": "Mobility Emax % of C", "setting": "CH3/HeJ mice; p.o., CH3/HeJ mice", "result": "412.6 % of C"},
      {"measurement": "treatment time after which increases in sucrose intake in stressed animals reached statistical significance vs Week 0", "setting": "Wistar rats; stressed animals, i.p. once daily", "result": "four weeks"}
    ]},
    {"smiles": "NS(=O)(=O)NC[C@H]1COc2cc(Cl)ccc2O1", "note": "[Compound #8, (2S)-(−)-N-(6-Chloro-2,3-dihydro-benzo[1,4]dioxin-2-ylmethyl)-sulfamide]", "values": [
      {"measurement": "acquisition of kindling", "setting": "[1]; 75 mg/kg i.p.", "result": "prevented the acquisition of the full generalized kindled seizure"},
      {"measurement": "seizure score at the conclusion of the drug- and stimulus-free period", "setting": "[1]; 75 mg/kg i.p. during kindling acquisition, Racine scale, vehicle 4.6±0.24", "result": "1.4±0.40"},
      {"measurement": "after-discharge (AD) duration vs vehicle", "setting": "[1]; 75 mg/kg i.p., kindling acquisition phase", "result": "No statistical difference between treatment groups"},
      {"measurement": "doses at which effects were statistically significant vs vehicle", "setting": "CH3/HeJ mice; p.o., CH3/HeJ mice", "result": "12 mg/kg, 60 mg/kg, and 120 mg/kg"},
      {"measurement": "Immobility Emax % of C", "setting": "CH3/HeJ mice; p.o., CH3/HeJ mice", "result": "22.2±6.1 % of C"},
      {"measurement": "Mobility Emax % of C", "setting": "CH3/HeJ mice; p.o., CH3/HeJ mice", "result": "95.6 % of C"},
      {"measurement": "Immobility Emax % of C", "setting": "CH3/HeJ mice; p.o., CH3/HeJ mice, listed as Cmpd #8", "result": "22.2 % of C"},
      {"measurement": "immobility time and mobility time", "setting": "CH3/HeJ mice; p.o., CH3/HeJ mice, 7-min testing session", "result": "decreased immobility time and increased mobility time"},
      {"measurement": "after-discharge duration reduced", "setting": "[2]", "result": 86, "unit": "%"},
      {"measurement": "rats exhibiting ataxia and sedation", "setting": "[2]; n=9", "result": "Four of the nine"},
      {"measurement": "rats protected", "setting": "[2]; n=9", "result": "Eight out of nine"},
      {"measurement": "after-discharge duration after treatment", "setting": "[2]; from 73 sec", "result": 10, "unit": "s"},
      {"measurement": "seizure score after treatment", "setting": "[2]; reduced from a 5", "result": 0.8},
      {"measurement": "activity in the CMS model of depression", "setting": "Wistar rats; 12, 30 or 60 mg/kg i.p.", "result": "inactive in the CMS model of depression"}
    ]}
  ]
}
